In US11944605B2, “Rapamycin analogs and uses thereof” (Janssen Pharmaceutica NV, priority 2018, dated 2024):

Key:
[1] = test system: pS6K1 (p-p70 S6 Kinase (Thr389)) in MCF-7 cells; test: AlphaLISA Ultra pS6K1 Assay; assay type: cell-based; conditions: Homo sapiens, 1.5 h; MCF7 cells, 90 min
Method: AlphaLISA Ultra pS6K1 Assay
1. Seed MCF-7 cells in Corning 3701 plate and incubate for 20˜24 hour. 12,000˜16,000 cells will be seeded in 36 μL medium per well.
2. Change the culture medium with fresh medium and incubate for another 2 hours.
3. Add 12 μL (4×) compounds into the cell plate by HAMILTON. Final DMSO concentration is 0.5%. Incubate for 90 minutes.
4. Aspirate […] by HAMILTON, 10 μL rest per well.
5. Add 10 μL 2× lysis buffer using HAMILTON; total volume in wells is 20 μL. Allow cells to shake for 30 min. Cover plate by plastic foil and store plate at −80° C. up to analysis.
6. Thaw cell lysate at RT and transfer 10 μL lysate to assay plate (Optiplate-384).
7. Add 5 μL acceptor beads into assay plate and incubation for 2 hours
8. Add 5 μL donor beads and incubation for 2 hours
9. Count the plate by EnSpire Multimode Plate Reader

mTORC1 over mTORC2 = test: mTORC1 selectivity over mTORC2 at 24 hrs (Western blot based pS6K1 and pAKT assay); assay type: cell-based; conditions: 24 hrs
Method: Western Blot Based pS6K1 and pAKT Assay at 24 and 48 Hour Timepoints
1. Seed six well plate with 500,000 PC3 cells per well and incubate for 20˜24 hour.
2. Add compounds into the cell plate. Incubate for 24 to 48 hours.
4. Plate is placed on ice and the media is removed via aspiration. The wells are washed with 1 mL of 1× PBS and then fully aspirated.
5. 110 μL of 1% Triton Lysis Buffer is added and each well is scraped vigorously.
6. Cell homogenates are transferred to 1.5 mL eppendorf tubes on ice and spun down at 4° C. for 10 minutes at 10,000 rpm.
9. The membranes were washed 3× with TBS-T with a 5 minute incubation between each wash then incubated with secondary antibody (LiCor IRDye 800 Donkey Anti Rabbit) for at least 30 minutes.
10. The membranes were washed 3× with TBS-T with a 5 minute incubation between each wash.
11. The gels were then incubated for 5 minutes with PBS at room temperature then imaged using a Li-Cor.
“N/A” stands for “not assayed.”

Compound	IC50 [1]	mTORC1 selective @ 24 hrs (mTORC1 over mTORC2)
CO[C@@H]1C[C@H](C[C@@H](C)[C@@H]2CC(=O)[C@H](C)/C=C(\C)[C@@H](O)[C@@H](OC)C(=O)[C@H](C)C[C@H](C)/C=C/C=C/C=C(\C)[C@H](OCC(CO)CO)C[C@@H]3CC[C@@H](C)[C@@](O)(O3)C(=O)C(=O)N3CCCC[C@H]3C(=O)O2)CC[C@H]1O [I-4]	0.1 to 1 nM	YES
CNC(=O)CCCO[C@@H]1C[C@@H]2CC[C@@H](C)[C@@](O)(O2)C(=O)C(=O)N2CCCC[C@H]2C(=O)O[C@H]([C@H](C)C[C@@H]2CC[C@@H](OCCO)[C@H](OC)C2)CC(=O)[C@H](C)/C=C(\C)[C@@H](O)[C@@H](OC)C(=O)[C@H](C)C[C@H](C)/C=C/C=C/C=C/1C [I-59, 4-[[(22E,24E,26E,27E,34R,35S,36R,37R,39S,41S,43R,44S,45R,46R,56R)-45, 56-dihydroxy-44-[(1R)-2-[(1S,3R,4R)-4-(2-hydroxyethoxy)-3-methoxy-cyclohexyl]-1-methyl-ethyl]-46-methoxy-34, 35,36,37,47,48-hexamethyl-49,50,51,52,53-pentaoxo-68,69-dioxa-58-azatricyclohexatriaconta-22, 24,26(47),27(48)-tetraen-43-yl]oxy]-N-methyl-butanamide]	≥ 100 nM	YES
CNC(=O)CCCO[C@H]1C[C@@H]2CC[C@@H](C)[C@@](O)(O2)C(=O)C(=O)N2CCCC[C@H]2C(=O)O[C@H]([C@H](C)C[C@@H]2CC[C@@H](OCCO)[C@H](OC)C2)CC(=O)[C@H](C)/C=C(\C)[C@@H](O)[C@@H](OC)C(=O)[C@H](C)C[C@H](C)/C=C/C=C/C=C/1C [I-60, 4-[[(22E, 24E,26E,27E,34R,35S,36R,37R,39S,41S,43S,44S,45R,46R,56R)-45, 56-dihydroxy-44-[(1R)-2-[(1S,3R,4R)-4-(2-hydroxyethoxy)-3-methoxy-cyclohexyl]-1-methyl-ethyl]-46-methoxy-34, 35,36,37,47,48-hexamethyl-49,50,51,52,53-pentaoxo-68,69-dioxa-58-azatricyclohexatriaconta-22, 24,26(47),27(48)-tetraen-43-yl]oxy]-N-methyl-butanamide]	1 to 10 nM	YES
CO[C@@H]1C[C@H](C[C@@H](C)[C@@H]2CC(=O)[C@H](C)/C=C(\C)[C@@H](O)[C@@H](OC)C(=O)[C@H](C)C[C@H](C)/C=C/C=C/C=C(\C)[C@H](OCCCC(=O)N(C)C)C[C@@H]3CC[C@@H](C)[C@@](O)(O3)C(=O)C(=O)N3CCCC[C@H]3C(=O)O2)CC[C@H]1OCCO [I-61, 4-[[(23E,25E,27E,28E,35R,36S,37R,38R,40S,42S,44R,45S,46R,47R,57R)-46, 57-dihydroxy-45-[(1R)-2-[(1S,3R,4R)-4-(2-hydroxyethoxy)-3-methoxy-cyclohexyl]-1-methyl-ethyl]-47-methoxy-35, 36,37,38,48,49-hexamethyl-50,51,52,53,54-pentaoxo-69,70-dioxa-58-azatricyclohexatriaconta-23, 25,27(48),28(49)-tetraen-44-yl]oxy]-N,N-dimethyl-butanamide]	1 to 10 nM	YES
CNC(=O)CCCOC1C[C@@H]2CC[C@@H](C)[C@@](O)(O2)C(=O)C(=O)N2CCCC[C@H]2C(=O)OC([C@H](C)CC2CC[C@@H](OCCO)[C@H](OC)C2)CC(=O)[C@H](C)/C=C(\C)[C@@H](O)[C@@H](OC)C(=O)[C@H](C)C[C@H](C)/C=C/C=C/C=C/1C (stereo partly drawn) [I-68, 4-[[(22E,24E,26E,27E,34R,35S,36R,37R,39S,41S,44S,45R,46R, 56R)-45,56-dihydroxy-44-[(1R)-2-[(1S,3R,4R)-4-(2-hydroxyethoxy)-3-methoxy-cyclohexyl]-1-methyl-ethyl]-46-methoxy-34, 35,36,37,47,48-hexamethyl-49,50,51,52,53-pentaoxo-68,69-dioxa-58-azatricyclohexatriaconta-22, 24,26(47),27(48)-tetraen-43-yl]oxy]-N-methyl-butanamide]	1 to 10 nM	YES
CO[C@@H]1CC(C[C@@H](C)C2CC(=O)[C@H](C)/C=C(\C)[C@@H](O)[C@@H](OC)C(=O)[C@H](C)C[C@H](C)/C=C/C=C/C=C(\C)C(OCCCC(=O)N(C)C)C[C@@H]3CC[C@@H](C)[C@@](O)(O3)C(=O)C(=O)N3CCCC[C@H]3C(=O)O2)CC[C@H]1OCCO (stereo partly drawn) [I-69, 4-[[(23E, 25E,27E,28E,35R,36S,37R,38R,40S,42S,45S,46R,47R,57R)-46,57-dihydroxy-45-[(1R)-2-[(1S, 3R,4R)-4-(2-hydroxyethoxy)-3-methoxy-cyclohexyl]-1-methyl-ethyl]-47-methoxy-35, 36,37,38,48,49-hexamethyl-50,51,52,53,54-pentaoxo-69,70-dioxa-58-azatricyclohexatriaconta-23, 25,27(48),28(49)-tetraen-44-yl]oxy]-N,N-dimethyl-butanamide]	0.1 to 1 nM	YES
CO[C@@H]1CC(C[C@@H](C)C2CC(=O)[C@H](C)/C=C(\C)[C@@H](O)[C@@H](OC)C(=O)[C@H](C)C[C@H](C)/C=C/C=C/C=C(\C)[C@H](OCCOCC(F)(F)F)C[C@@H]3CC[C@@H](C)[C@@](O)(O3)C(=O)C(=O)N3CCCC[C@H]3C(=O)O2)CC[C@H]1OCCO (stereo partly drawn) [I-70, (21E,23E,25E,26E,33R,34S,35R,36R,38S,40S,42S,43R,44R,45R,54R)-44, 54-dihydroxy-43-[(1R)-2-[(1S,3R,4R)-4-(2-hydroxyethoxy)-3-methoxy-cyclohexyl]-1-methyl-ethyl]-45-methoxy-33, 34,35,36,46,47-hexamethyl-42-[2-(2,2,2-trifluoroethoxy)ethoxy]-65, 66-dioxa-56-azatricyclohexatriaconta-21,23,25(46),26(47)-tetraene-48,49,50,51,52-pentone]	1 to 10 nM	YES
CO[C@@H]1CC(C[C@@H](C)C2CC(=O)[C@H](C)/C=C(\C)[C@@H](O)[C@@H](OC)C(=O)[C@H](C)C[C@H](C)/C=C/C=C/C=C(\C)C(OCCOCC(F)(F)F)C[C@@H]3CC[C@@H](C)[C@@](O)(O3)C(=O)C(=O)N3CCCC[C@H]3C(=O)O2)CC[C@H]1OCCO (stereo partly drawn) [I-77, (21E,23E,25E,26E,33R,34S,35R,36R,38S,40S,43S,44R,45R,54R)-44, 54-dihydroxy-43-[(1R)-2-[(1S,3R,4R)-4-(2-hydroxyethoxy)-3-methoxy-cyclohexyl]-1-methyl-ethyl]-45-methoxy-33, 34,35,36,46,47-hexamethyl-42-[2-(2,2,2-trifluoroethoxy)ethoxy]-65,66-dioxa-56-azatricyclohexatriaconta-21, 23,25(46),26(47)-tetraene-48,49,50,51,52-pentone]	< 0.1 nM	YES
CO[C@@H]1C[C@H](C[C@@H](C)[C@@H]2CC(=O)[C@H](C)/C=C(\C)[C@@H](O)[C@@H](OC)C(=O)[C@H](C)C[C@H](C)/C=C/C=C/C=C(\C)[C@H](OCCOCCOCC(F)(F)F)C[C@@H]3CC[C@@H](C)[C@@](O)(O3)C(=O)C(=O)N3CCCC[C@H]3C(=O)O2)CC[C@H]1OCCO [I-84]	0.1 to 1 nM	YES
CO[C@@H]1C[C@H](C[C@@H](C)[C@@H]2CC(=O)[C@H](C)/C=C(\C)[C@@H](O)[C@@H](OC)C(=O)[C@H](C)C[C@H](C)/C=C/C=C/C=C(\C)[C@@H](OCCS(=O)(=O)CCS(=O)(=O)CCO)C[C@@H]3CC[C@@H](C)[C@@](O)(O3)C(=O)C(=O)N3CCCC[C@H]3C(=O)O2)CC[C@H]1O [I-95, (21E,23E,25E,26E,34R,35S,36R,37R,39S,41S,43S,44S,45R,46R,55R)-45, 55-dihydroxy-43-[2-[2-(2-hydroxyethylsulfonyl)ethylsulfonyl]ethoxy]-44-[(1R)-2-[(1S,3R, 4R)-4-hydroxy-3-methoxy-cyclohexyl]-1-methyl-ethyl]-46-methoxy-34,35,36,37,47,48-hexamethyl-70, 71-dioxa-56-azatricyclohexatriaconta-21,23,25(47),26(48)-tetraene-49, 50,51,52,53-pentone]	–	YES
COCCOCCO[C@@H]1C[C@@H]2CC[C@@H](C)[C@@](O)(O2)C(=O)C(=O)N2CCCC[C@H]2C(=O)O[C@H]([C@H](C)C[C@@H]2CC[C@@H](OCCO)[C@H](OC)C2)CC(=O)[C@H](C)/C=C(\C)[C@@H](O)[C@@H](OC)C(=O)[C@H](C)C[C@H](C)/C=C/C=C/C=C/1C [I-104, (22E,24E,26E,27E,35R,36S,37R,38R,40S,42S,44R,45S,46R,47R,56R)-46, 56-dihydroxy-45-[(1R)-2-[(1S,3R, 4R)-4-(2-hydroxyethoxy)-3-methoxy-cyclohexyl]-1-methyl-ethyl]-47-methoxy-44-[2-(2-methoxyethoxy)ethoxy]-35,36,37,38,48,49-hexamethyl-66, 67-dioxa-57-azatricyclohexatriaconta-22,24,26(48),27(49)-tetraene-50,51,52,53,54-pentone]	0.1 to 1 nM	YES
